Experimental findings from patent publication US6391904B1, “Iminoguanidine derivatives, preparation method, use as medicines” (Aventis Pharma S.A., priority 1998, dated 2002) are described below.

In this assay the target is human αvβ3 receptor (Homo sapiens, UniProt P05106+P06756). Description: Kistrin/Vitronectin Receptor (αvβ3) ELISA test. It is filed as binding. As to conditions: Kistrin-coated plates, 3 hours at ambient temperature, 4B12-HRP detection, read-out: K/VnR IC50. The protocol: Pharmacological Test: Kistrin/Vitronectin Receptor (αvβ3) ELISA Test Protocol:
96-well MaxiSorp plates are coated overnight at […] with 100 μl of Kistrin at 1 μg/ml (dilution in coating buffer: 0.05M carbonate)/NaOH pH 9.6. The next day, the wells are emptied and the ligands (kistrin) are then fixed (fixation buffers: PBS containing 0.5% BSA (pH=7.4)) for 1 hour at ambient temperature under gentle agitation of 125 rpm. The wells are washed six times (washing buffer: PBS containing 0.05% Tween 20 (pH 7.7) then the following is added per well and in this order:
40 μl of incubation buffer
10 μl of the dilution of the product to be tested (the products are diluted in a 50:50 DMSO/water mixture)
50 μl of human αvβ3 receptor (cf Pytel et al. Methods Enzymol. (1987) 144 (Dilution in incubation buffer, adapted according to the batch of receptor and according to the ligand). The ligand, the αvβ3 receptor and the products to be studied are incubated for 3 hours at ambient temperature with gentle agitation of 125 rpm.
The wells are again washed six times, then incubated for 2 hours at ambient temperature with mild agitation of 125 rpm, in the presence of 100 μl of anti-receptor antibody coupled to a peroxidase (The 4B12-HRP antibody is diluted in incubation buffer (50 mM TRIS pH 7.4; 0.5% BSA; 0.05% Tween 20; 1 mM MnCl2; 50 μM CaCl2; 50 μM MgCl2; 100 mM NaCl). The dilution is to be adapted according to the batch of receptor.
The wells are then washed six times before measurement of the ligand-receptor bond is carried out using a peroxidase developer kit (TBM Microwell Peroxidase Substrate System Kirkegaard; Ref cat 50-76-00).
This kit contains a flask A of substrate (3,3′,5,5′-tetramethylebenzidine at 0.4 g/l) and a flask B (H2O2 to 0.02% in Citrate/Citric acid). Extemporaneously, one volume of A is mixed with one volume of B, then the reaction mixture is distributed at a rate of 100 μl/wells.
The enzymatic reaction develops between 6 to 10 minutes for Kistrin/αvβ3 then its development is stopped by the addition of 100 μl of 1M phosphoric acid. The optical density is determined at 450 nm.
Expression of the Results
The following curve is plotted: the bond percentage as a function of the logarithm of each concentration of the tested product.
For each product IC50 is determined according to the following formula: IC50=(B0+Bmin)/2 B0=Maximum bond in the absence of any product Bmin=Minimum bond in the presence of the highest concentration of the product.

Each structure is given as a SMILES string.

human αvβ3 receptor, sequence (P06756 31-889 limits assumed): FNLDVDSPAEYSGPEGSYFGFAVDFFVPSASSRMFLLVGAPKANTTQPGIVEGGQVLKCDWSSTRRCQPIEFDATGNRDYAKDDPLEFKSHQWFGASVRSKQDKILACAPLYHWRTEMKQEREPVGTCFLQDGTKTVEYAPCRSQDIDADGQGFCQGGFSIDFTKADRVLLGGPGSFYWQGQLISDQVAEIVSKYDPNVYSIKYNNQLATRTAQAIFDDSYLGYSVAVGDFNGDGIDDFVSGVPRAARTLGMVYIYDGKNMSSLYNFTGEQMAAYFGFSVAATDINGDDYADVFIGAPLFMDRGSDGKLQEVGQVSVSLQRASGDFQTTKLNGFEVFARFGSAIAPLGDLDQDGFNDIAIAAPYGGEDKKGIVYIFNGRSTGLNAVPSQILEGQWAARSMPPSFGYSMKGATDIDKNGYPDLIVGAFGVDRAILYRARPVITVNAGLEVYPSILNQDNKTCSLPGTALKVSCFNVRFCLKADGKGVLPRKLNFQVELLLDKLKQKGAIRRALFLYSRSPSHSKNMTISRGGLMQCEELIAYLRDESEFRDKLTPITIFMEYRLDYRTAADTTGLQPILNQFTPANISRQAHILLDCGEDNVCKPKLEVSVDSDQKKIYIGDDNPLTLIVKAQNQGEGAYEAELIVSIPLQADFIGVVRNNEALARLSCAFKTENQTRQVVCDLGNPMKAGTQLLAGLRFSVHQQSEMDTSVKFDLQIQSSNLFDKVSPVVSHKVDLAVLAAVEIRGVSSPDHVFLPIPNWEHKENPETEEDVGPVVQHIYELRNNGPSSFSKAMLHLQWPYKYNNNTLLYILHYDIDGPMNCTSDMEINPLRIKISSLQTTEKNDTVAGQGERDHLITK
human αvβ3 receptor, sequence (P06756 891-1048 limits assumed): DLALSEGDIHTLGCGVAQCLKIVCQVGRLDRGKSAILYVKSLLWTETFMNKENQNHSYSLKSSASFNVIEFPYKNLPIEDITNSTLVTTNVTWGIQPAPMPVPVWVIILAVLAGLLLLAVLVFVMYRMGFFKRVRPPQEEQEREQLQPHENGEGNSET
human αvβ3 receptor, sequence (P05106 27-788): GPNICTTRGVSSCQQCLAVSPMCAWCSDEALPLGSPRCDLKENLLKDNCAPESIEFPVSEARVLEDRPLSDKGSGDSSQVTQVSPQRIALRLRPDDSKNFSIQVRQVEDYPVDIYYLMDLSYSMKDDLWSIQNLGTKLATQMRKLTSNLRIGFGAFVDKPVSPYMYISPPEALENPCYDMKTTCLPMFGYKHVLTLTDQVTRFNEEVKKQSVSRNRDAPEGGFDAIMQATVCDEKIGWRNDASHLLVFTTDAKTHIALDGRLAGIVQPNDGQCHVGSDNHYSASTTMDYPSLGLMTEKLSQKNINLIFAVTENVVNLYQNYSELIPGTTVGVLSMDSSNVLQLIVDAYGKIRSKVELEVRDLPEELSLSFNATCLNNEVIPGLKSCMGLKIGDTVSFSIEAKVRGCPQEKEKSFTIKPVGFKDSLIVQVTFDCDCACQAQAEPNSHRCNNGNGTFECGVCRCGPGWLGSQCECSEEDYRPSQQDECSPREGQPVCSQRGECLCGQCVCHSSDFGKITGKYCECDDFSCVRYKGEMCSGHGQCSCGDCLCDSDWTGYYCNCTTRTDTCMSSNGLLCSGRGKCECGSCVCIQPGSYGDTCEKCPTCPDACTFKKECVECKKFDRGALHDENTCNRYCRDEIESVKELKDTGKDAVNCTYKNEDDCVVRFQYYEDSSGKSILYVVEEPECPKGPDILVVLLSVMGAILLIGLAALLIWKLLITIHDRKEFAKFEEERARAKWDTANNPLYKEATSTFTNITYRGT

As for `C/C(Cc1ccc(OCCC(NC(=O)OCc2ccccc2)C(=O)O)c(F)c1)=N\NC1=NCCN1` (racemic) [ex 7, O-[4-[2-[(4,5-Dihydro-1H-imidazol-2-yl)hydrazono]propyl]-2-fluorophenyl]-N-[(phenylmethoxy)carbonyl]-homoserine], the IC50 worked out at 22 nM.

Regarding `CC(CCc1cccc(OCCC(NC(=O)OCc2ccccc2)C(=O)O)c1)=NNC1=NCCN1` (mixture of isomers) [ex 9, O-[3-[3-[(4,5-Dihydro-1H-imidazol-2-yl)hydrazono]butyl]-phenyl]-N-[(phenylmethoxy)carbonyl]-homoserine], the IC50 came to 2000 nM.

`CC(CCc1ccc(OCCC(NC(=O)OCc2ccccc2)C(=O)O)cc1)=NNC(=N)N` (mixture of isomers) [ex 2, O-[4-[3-[(Aminoiminomethyl)hydrazono]butyl]phenyl]-N-[(phenylmethoxy)carbonyl]-homoserine]: the IC50 stood at 1350 nM.

As for `N=C(N)NN=CCCc1cccc(OCCC(NC(=O)OCc2ccccc2)C(=O)O)c1` (mixture of isomers) [ex 11, O-[3-[3-[(Aminoiminomethyl)hydrazono]propyl]phenyl]-N-[(phenylmethoxy)carbonyl]-homoserine], the IC50 is 3250 nM.

As for `O=C(NC(CCOc1ccc(CC/C=N\NC2=NCCN2)cc1)C(=O)O)OCc1ccccc1` (racemic) [ex 3, O-[4-[3-[(4,5-Dihydro-1H-imidazol-2-yl)hydrazono]propyl]-phenyl]-N-[(phenylmethoxy)carbonyl]-homoserine], the IC50 was 110 nM.

Take `CC(Cc1cccc(OCCC(NC(=O)OCc2ccccc2)C(=O)O)c1)=NNC1=NCCN1` (mixture of isomers) [ex 10, O-[3-[2-[(4,5-Dihydro-1H-imidazol-2-yl) hydrazono]propyl]-phenyl]-N-[(phenylmethoxy)carbonyl]-homoserine]: the IC50 worked out at 355 nM.

As to `CC(CCc1ccc(OCCC(NC(=O)OCc2ccccc2)C(=O)O)cc1)=NNC1=NCCN1` (mixture of isomers) [ex 1, O-[4-[3-[(4,5-Dihydro-1H-imidazol-2-yl)hydrazono]butyl]-phenyl]-N-[(phenylmethoxy)carbonyl]-homoserine.], the IC50 turned out to be 150 nM.

Regarding `COc1cc(C/C(C)=N/NC2=NCCN2)ccc1OCCC(NC(=O)OCc1ccccc1)C(=O)O` (racemic) [ex 6, O-[4-[2-[(4,5-Dihydro-1H-imidazol-2-yl)hydrazono]propyl]-2-methoxyphenyl]-N-[(phenylmethoxy)carbonyl]-homoserine], the IC50 amounted to 12 nM.

With `O=C(NC(CCOc1ccc(/C=N/NC2=NCCN2)cc1)C(=O)O)OCc1ccccc1` (stereo not drawn) [ex 13], the IC50 was found to be 292 nM.

Turning to `CC(Cc1ccc(OCCC(NC(=O)OCc2ccccc2)C(=O)O)cc1)=NNC1=NCCN1` (mixture of isomers) [ex 5], the IC50 came to 22 nM.

Turning to `N=C(N)NN=CCCc1ccc(OCCC(NC(=O)OCc2ccccc2)C(=O)O)cc1` (mixture of isomers) [ex 4, O-[4-[3-[(Aminoiminomethyl)hydrazono]propyl]phenyl]-N-[(phenylmethoxy)carbonyl]-homoserine], the IC50 is 450 nM.

Consider `O=C(NC(CCOc1cccc(CC/C=N/NC2=NCCN2)c1)C(=O)O)OCc1ccccc1` (stereo not drawn) [ex 12, O-[3-[3-[(4,5-Dihydro-1H-imidazol-2-yl) hydrazono]propyl]-phenyl]-N-[(phenylmethoxy)carbonyl]-homoserine], for which the IC50 was 960 nM.
